From patent US6133304A, “ACE inhibitor-MMP inhibitor combinations” (priority 2000, dated 2000)

Legend:
fibroblast = conditions: tissue culture cells; cited from earlier work
[1] = system: pigs subjected to rapid pacing; test: rapid-paced pig model of heart failure (Example 2); type: in vivo; conditions: for LV End-Systolic Pressure / Pulmonary Vascular Resistance / Systemic Vascular Resistance / Plasma Norepinephrine: Day 21 of pacing, 793 2 mg/kg/day PO, F […] BID PO; for LV End-Systolic Pressure / Pulmonary Vascular Resistance / Systemic Vascular Resistance: pacer off; for LV End-Systolic Pressure / Plasma Norepinephrine: spread printed in the next line; for Pulmonary Vascular Resistance / Systemic Vascular Resistance: spread printed in the next lines; for LV end-diastolic dimension (dilation), in words / LV wall stress, in words: echocardiography, 3-week pacing period
[2] = system: spontaneously hypertensive heart failure (SHHF) rats; test: 8-month progression study in SHHF rats (Example 1); type: in vivo, rat; conditions: for LVEDP (left ventricular end-diastolic pressure) / LVESP (left ventricular end-systolic pressure) / LVV-OP: SHHF rats, 8 months in diet; for LVEDP (left ventricular end-diastolic pressure) / LVESP (left ventricular end-systolic pressure): PD 166793 5 mg/kg/day, quinapril 10 mg/kg/day or both; for LVV-OP: left ventricular pressure volume relations, KCl arrested heart
Procedure: Five groups of rats (n=14 per group) were tested: 17-month-old normotensive Fischer control Rats (F-1 7); vehicle treated 17-month-old SHHF Rats (SHHF-17); PD 166793-0000 (Lot Y) SHHF Rats (SHHF-793); Quinapril (PD 109452-0002, Lot Y) SHHF Rats (SHHF-Q); PD 166793 +Quinapril SHHF Rats (SHHF-793Q). Naive Fischer rats were acclimatized 2 weeks prior to testing. All SHHF rats were maintained in-house, administered drug for 8 months, and then cardiovascular tests were performed and tissue samples taken. The primary endpoint for the study was the prevention of cardiac dilation as determined by left ventricular pressure volume relations in the excised KCI arrested heart.
Drug Administration: All SHHF rats were fed powdered rat chow for 1 week prior to drug administration, and daily food consumption was measured by weighing the foodcups. Drug was added to powdered rat chow so that rats consumed their daily dose of PD 166793 (5 mg/kg/day), quinapril (10 mg/kg/day), or both drugs in combination. Food consumption was monitored twice weekly.
Terminal Cardiovascular Test: Rats were anesthetized with isoflurane for terminal testing. Isoflurane was administered using a mask until the rats are anesthetized and a tracheotomy performed. The rats were respired using a ventilator (A.D.S. 1000, Engler Engineering Corp., Hialeah, Fla.). Cardiac function was assessed in closed-chest rats by measuring LV dP/dt, LV end-diastolic pressure (EDP), heart rate, and aortic blood pressure using a Millar pressure transducer inserted through the right carotid. Physiological data was recorded at 500 Hz, and a logging rate of 5 seconds was used to average data. […] Baseline measurements were made when the rats reached a stable plateau of anesthesia. Normotensive rats had their blood pressure increased by partial occlusion of the aorta so that cardiovascular function could be assessed at a pressure of 180 mmHg, the projected blood pressure of SHHF rats. Approximately 4 to 5 mL of blood were withdrawn in ice-cold syringes and then transferred to ice-cold EDTA tubes. Blood was centrifuged at 4500 RPM for 10 minutes so that plasma could be stored for drug measurements, and measuring collagen breakdown products. The heart was arrested with KCl and rapidly excised. A glass cannula was inserted through the aorta into the LV chamber, and secured into place by a ligature around the atrio-ventricular groove. Cardiac dilation was measured by generating left ventricular pressure volume (PV) curves. The PV curves was generated by evacuating the LV of saline and then filling the LV at a fixed rate using a programmable pump set at a 1 mL/min flow rate. The PV curves were recorded on a Po-Ne-Mah digital data acquisition system. A 2 to 3 mm cross-section of the heart was removed (at the level of the papillary muscles). The remainder of the heart was rapidly divided into RV and LV tissue that was frozen in liquid N2 for subsequent weighing and biochemical analysis. The cross-sections were fixed in buffered formalin for histology. This procedure will allow LV, and RV weights to be determined and hypertrophy to be assessed.

[3] = system: spontaneously hypertensive heart failure (SHHF) rats; test: previous 4-month experiment in SHHF rats; type: in vivo, rat; conditions: for cardiac dilation, in words / left ventricular (LV) systolic function, in words: 4 months
MMP-3 (stromelysin) = MMP-3 (stromelysin) (Homo sapiens, UniProt P08254); test: thiopeptolide substrate hydrolysis assay, MMP-3; type: biochemical; conditions: pH 6.0, 22° C., read-out: IC50 MMP3
Procedure: The assays measure the amount by which a test compound reduces the hydrolysis of a thiopeptolide substrate caused by a matrix metalloproteinase enzyme.
Thiopeptolide substrates show virtually no decomposition or hydrolysis in the absence of a matrix metalloproteinase enzyme. A typical thiopeptolide substrate commonly utilized for assays is Ac-Pro-Leu-Gly-thioester-Leu-Leu-Gly-O Et. […] Assays are carried out with and without matrix metalloproteinase inhibitor compounds, and the amount of hydrolysis is compared for a determination of inhibitory activity of the test compounds.

[4] = PD 166793 plasma levels in SHHF rats (Example 1); type: in vivo; conditions: rat, po, 5 mg/kg/day PD 166793 in diet, 8 months
Procedure: Drug Administration: […] Food consumption was monitored twice weekly. Terminal Cardiovascular Test: Rats were anesthetized with isoflurane for terminal testing. Isoflurane was administered using a mask until the rats are anesthetized and a tracheotomy performed. The rats were respired using a ventilator ([…] Engineering Corp., Hialeah, Fla.). Cardiac function was assessed in closed-chest rats by measuring LV dP/dt, LV end-diastolic pressure (EDP), heart rate, and aortic blood pressure using a Millar pressure transducer inserted through the right carotid. Physiological data was recorded at 500 Hz, and a logging rate of 5 seconds was used to average data. […] Baseline measurements were made when the rats reached a stable plateau of anesthesia. […] Approximately 4 to 5 mL of blood were withdrawn in ice-cold syringes and then transferred to ice-cold EDTA tubes. […] The heart was arrested with KCl and rapidly excised. A glass cannula was inserted through the aorta into the LV chamber, and secured into place by a ligature around the atrio-ventricular groove. Cardiac dilation was measured by generating left ventricular pressure volume (PV) curves. […] The PV curves were recorded on a Po-Ne-Mah digital data acquisition system. […] This procedure will allow LV, and RV weights to be determined and hypertrophy to be assessed.

in vivo = conditions: pig, po, 2 mg/kg/day
[5] = relative to untreated rapid-paced pigs, FIG. 5

Sequence of MMP-3 (stromelysin) (P08254 100-272 limits assumed): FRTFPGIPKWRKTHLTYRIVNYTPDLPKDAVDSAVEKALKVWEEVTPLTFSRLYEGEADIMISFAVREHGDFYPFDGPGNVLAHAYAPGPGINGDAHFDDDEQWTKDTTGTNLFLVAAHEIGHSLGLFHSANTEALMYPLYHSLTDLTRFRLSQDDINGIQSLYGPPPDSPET

Row | SMILES | LV End-Systolic Pressure [1] | Pulmonary Vascular Resistance [1] | Systemic Vascular Resistance [1] | Plasma Norepinephrine [1] | LV end-diastolic dimension (dilation), in words [1] | LV wall stress, in words [1] | LVEDP (left ventricular end-diastolic pressure) [2] | LVESP (left ventricular end-systolic pressure) [2] | LVV-OP [2] | cardiac dilation, in words [3] | left ventricular (LV) systolic function, in words [3] | further results
1 | NNC(=O)c1ccccc1 [Benzoic hydrazide, benzoic hydrazide] |  |  |  |  |  |  |  |  |  |  |  | collagen synthesis, in words (fibroblast): suppress collagen synthesis; fibroblast proliferation, in words (fibroblast): suppress collagen synthesis and fibroblast proliferation
2 | CCC(=O)O[C@@H](O[P@](=O)(CCCCc1ccccc1)CC(=O)N1C[C@H](C2CCCCC2)C[C@H]1C(=O)O)C(C)C [fosinopril] | 100 mmHg | 266 dynes*s*cm^-5 | 1529 dynes*s*cm^-5 | 618 pg/mL | reduce wall stress and end diastolic dimension | reduce wall stress |  |  |  |  |  | systolic function, slope of circumferential velocity over end-systolic stress relation (Vcfc-ES Stress), in words ([1]; compared to nontreated rapid-paced animals, FIG. 4): significantly improved systolic function; LV end-diastolic dimension (dilation), in words ([1]; listed as Fosinopril): more effective than the PD 166793 in reducing dilation; systolic function measured as preload recruitable stroke work (PRSW), in words ([1]; rapid-paced pigs, FIG. 3): improved systolic function to the greatest extent
3 | CCOC(=O)[C@H](CCc1ccccc1)N[C@@H](C)C(=O)N1Cc2ccccc2C[C@H]1C(=O)O [quinapril] |  |  |  |  |  |  | 17 ± 4 mmHg | 190 ± 7 mmHg | 603 ± 99 µL | A similar effect was also observed | A similar effect was also observed | LV weight, in words ([2]; compared to the vehicle control group): reduced
4 | CC(C)CC(CC(=O)NO)C(=O)N[C@@H](CC(C)C)C(=O)N[C@@H](Cc1ccccc1)C(N)=O (stereo partly shown) [U24522] |  |  |  |  |  |  |  |  |  |  |  | IC50 (MMP-3 (stromelysin)): 20 nM
5 | CC(C)C(NS(=O)(=O)c1ccc(-c2ccc(Br)cc2)cc1)C(=O)O (stereo not shown) [PD 166793, 2-(4'-bromobiphenyl-4-sulfonylamino)-3-methyl-butyric acid] | 110 mmHg | 417 dynes*s*cm^-5 | 2784 dynes*s*cm^-5 | 736 pg/mL | reduce wall stress and end diastolic dimension | reduce wall stress | 18 ± 3 mmHg | 188 ± 8 mmHg | 820 ± 58 µL | significantly reducing cardiac dilation | maintaining left ventricular (LV) systolic function | concentration at 5840 h [4]: 50.1 ± 7.1 µg/mL; concentration at 1 h (in vivo): 10800 ± 1200 ng/mL; mechanism (vasodilator, anti-hypertrophic), in words [3]: neither a vasodilator, nor an anti-hypertrophic; LV chamber stiffness, in words [1, 5]: increased both LV chamber stiffness and myocardial stiffness; myocardial stiffness, in words [1, 5]: increased both LV chamber stiffness and myocardial stiffness
